We go through 11 compounds from ChEMBL document CHEMBL1201862, “PubChem BioAssay data set” (2004).

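These data come from cells grown in 96-well plates and exposed to compound for 48 hours at five concentrations. At the GI50, growth is halved.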 Activity calls are given as the source filed them. No stated cut-off is given here; in the data, active = GI50 up to about 1.1 µM and inactive = higher.

Some test systems named below: A549; BT-549; CAKI-1; DMS-114; DU-145; HT-29; Hs-578T; IGROV-1; K562; M14; MCF7; Malme-3M; NCI-H226; NCI-H23; NCI-H460; NCI-H522; NCI/ADR-RES; SK-MEL-2; UO-31; UACC-257.
Assay in all cases: inhibition of tumour cell growth, NCI panel, 48 h

On to `O=C(Cc1ccccc1F)NC1=C(Cl)C(=O)c2ccccc2C1=O`, for which the GI50 in the test on A549 is 2.51 µM (inactive); in the test with BT-549, 1.36 µM (inactive); in the test with CAKI-1, 2.79 µM (inactive); in the test on DMS-114, 0.21 µM (active); in the test with DU-145, 10.1 µM (inactive); in the test on HT-29, 5.75 µM (inactive). For the same compound, the GI50 in the test with Hs-578T is 0.656 µM (active); with IGROV-1, 1.46 µM (inactive); with K562 it was 0.611 µM (active); with M14, 0.802 µM (active); with MCF7 it was 3.74 µM (inactive); with Malme-3M it was 1.35 µM (inactive). In addition, the GI50 in the test on NCI-H226 is 1.74 µM (inactive); in the test with NCI-H23, 0.778 µM (active); in the test with NCI-H460, 1.38 µM (inactive); in the test on NCI-H522, 0.29 µM (active); in the test on NCI/ADR-RES, 1.95 µM (inactive); in the test with SK-MEL-2, 0.652 µM (active). In addition, the GI50 with UO-31 is 0.723 µM (active).
`COC(=O)C(=O)C(C(=O)OC)C(=O)C(=O)Nc1cc(Cl)c(C)cc1S(=O)(=O)O` (stereo not drawn): the GI50 in the test on A549, with CAKI-1, in the test on DMS-114, in the test on HT-29, in the test with IGROV-1 and in the test with K562 was > 100 µM (inactive) throughout. Further, the GI50 in the test with M14, in the test on Malme-3M, with NCI-H226, in the test with NCI-H23, in the test with NCI-H460 and in the test on NCI-H522 was > 100 µM (inactive) in each case. Besides, the GI50 in the test on SK-MEL-2, in the test on UACC-257 and with UO-31 was > 100 µM (inactive) throughout.
Take `O=C(CN(c1ccccc1)c1ccccc1)n1nnc2ccccc21`: the GI50 is 28.6 µM (inactive) in the test with A549; 53 µM (inactive) in the test with CAKI-1; 29.3 µM (inactive) in the test on DMS-114; 44.1 µM (inactive) in the test with HT-29; 52.4 µM (inactive) in the test with IGROV-1; 37.8 µM (inactive) with K562. The GI50 was 52.8 µM (inactive) in the test on M14; 46.3 µM (inactive) in the test on Malme-3M; 27.5 µM (inactive) in the test on NCI-H226; 45.1 µM (inactive) with NCI-H23; 70.8 µM (inactive) in the test on NCI-H460; 21.4 µM (inactive) with NCI-H522. Further, the GI50 with SK-MEL-2 was 30.6 µM (inactive); with UACC-257 it was 41.4 µM (inactive); with UO-31, 14.3 µM (inactive).
As to `O=c1/c(=C/c2c(O)ccc3ccccc23)sc2nc3ccccc3n12`, the GI50 with A549, with CAKI-1, in the test with DMS-114, with HT-29, in the test on IGROV-1 and in the test with K562 was > 100 µM (inactive) in each case. Besides, the GI50 in the test with M14, in the test with Malme-3M, with NCI-H226, in the test with NCI-H23, in the test with NCI-H460 and in the test on NCI-H522 was > 100 µM (inactive) each time. The GI50 with SK-MEL-2, with UACC-257 and in the test on UO-31 was > 100 µM (inactive) in each case.
For `CCOc1cc(/C=C/C=C/C=C/c2ccc(N(C)C)cc2)[s+]c2ccccc12`, the GI50 in the test with A549 is 21 µM (inactive); with CAKI-1, 26.5 µM (inactive); in the test with DMS-114, 5.61 µM (inactive); with HT-29, 28.7 µM (inactive); with IGROV-1, 37.5 µM (inactive); in the test on K562, 20.9 µM (inactive). For the same compound, the GI50 with M14 is 19.7 µM (inactive); in the test with Malme-3M, 22.9 µM (inactive); in the test on NCI-H226 it was 11.1 µM (inactive); in the test on NCI-H23 it was 29.9 µM (inactive); with NCI-H460, 46.9 µM (inactive); in the test with NCI-H522, 4.56 µM (inactive). Further, the GI50 with SK-MEL-2 was 37.3 µM (inactive); in the test with UACC-257 it was 30.7 µM (inactive); in the test with UO-31, 4.58 µM (inactive).
For the compound `COc1cc2c(cc1O)[C@H](C)C(c1ccccc1OC)O2` (stereo partly drawn), the GI50 in the test on A549 is 5.33 µM (inactive); in the test with CAKI-1, 5.98 µM (inactive); in the test on DMS-114, 2.8 µM (inactive); with HT-29, 6.7 µM (inactive); with IGROV-1, 5.24 µM (inactive); in the test on K562, 2.81 µM (inactive). Also, the GI50 with M14 is 3.45 µM (inactive); with Malme-3M, 4.14 µM (inactive); in the test with NCI-H226 it was 22.4 µM (inactive); in the test with NCI-H23 it was 6.31 µM (inactive); in the test on NCI-H460, 2.08 µM (inactive); in the test with NCI-H522 it was 3.01 µM (inactive). The figures for the GI50 in the test on SK-MEL-2, in the test on UACC-257 and with UO-31 were 3.05 µM (inactive), 18.2 µM (inactive) and 8.57 µM (inactive), respectively.
Regarding `CC(C)C1NC(=O)[C@H](C)OC(=O)[C@@H](C(C)C)NC(=O)[C@@H](C)OC(=O)C(C(C)C)NC(=O)[C@H](C)OC1=O` (stereo partly drawn), the GI50 in the test with A549 was > 100 µM (inactive); in the test on CAKI-1 it was > 100 µM (inactive); in the test on DMS-114 it was > 63.8 µM (inactive); in the test with HT-29, > 100 µM (inactive); in the test with IGROV-1 it was > 100 µM (inactive); in the test on K562, > 41.7 µM (inactive). In addition, the GI50 in the test on M14 is > 95.1 µM (inactive); in the test on Malme-3M it was > 100 µM (inactive); in the test with NCI-H226, > 100 µM (inactive); in the test with NCI-H23, > 100 µM (inactive); in the test on NCI-H460, > 79.4 µM (inactive); in the test on NCI-H522, > 100 µM (inactive). Further, the GI50 in the test on SK-MEL-2, in the test on UACC-257 and in the test with UO-31 was > 100 µM (inactive) each time.
On to `COc1cc2ccc(=O)oc2cc1O` [SCOPOLETIN], for which the GI50 is 40.1 µM (inactive) in the test on A549; > 100 µM (inactive) with BT-549; 119 µM (inactive) in the test with CAKI-1; 28.5 µM (inactive) in the test on DMS-114; > 100 µM (inactive) with DU-145; 161 µM (inactive) in the test on HT-29. Besides, the GI50 in the test on Hs-578T was > 100 µM (inactive); in the test on IGROV-1, 69.3 µM (inactive); in the test on K562 it was 152 µM (inactive); with M14, > 100 µM (inactive); in the test on MCF7 it was 118 µM (inactive); in the test on Malme-3M it was 156 µM (inactive). Moreover, the GI50 with NCI-H226 is 86.3 µM (inactive); with NCI-H23 it was 69 µM (inactive); with NCI-H460 it was 18.4 µM (inactive); in the test with NCI-H522, 67.8 µM (inactive); with NCI/ADR-RES, 56.2 µM (inactive); in the test on SK-MEL-2, 109 µM (inactive). Besides, the GI50 was 71.9 µM (inactive) in the test with UACC-257 and 38 µM (inactive) with UO-31.
Consider `CCOC(=O)C(NC(=O)c1nc[nH]c1[N+](=O)[O-])C(C)C` (stereo not drawn), for which the GI50 in the test on A549 is > 100 µM (inactive); in the test with CAKI-1, > 100 µM (inactive); in the test with DMS-114 it was > 100 µM (inactive); with HT-29, 74 µM (inactive); in the test with IGROV-1, > 100 µM (inactive); in the test on K562, > 100 µM (inactive). Also, the GI50 was > 100 µM (inactive) in the test with M14; > 100 µM (inactive) in the test with Malme-3M; 30.8 µM (inactive) with NCI-H226; 31.3 µM (inactive) with NCI-H23; 50.6 µM (inactive) in the test on NCI-H460; > 100 µM (inactive) with NCI-H522. For the same compound, the GI50 is > 100 µM (inactive) in the test on SK-MEL-2, 94.8 µM (inactive) in the test with UACC-257 and > 100 µM (inactive) in the test with UO-31.
On to `CSc1ncnc2c1CCN2`, for which the GI50 with A549 is > 10 µM (inactive); in the test with CAKI-1 it was > 10 µM (inactive); with DMS-114, > 100 µM (inactive); with DU-145 it was > 10 µM (inactive); in the test with HT-29, 7.96 µM (inactive); with Hs-578T, 4.51 µM (inactive). The GI50 was > 10 µM (inactive) with IGROV-1; 4.93 µM (inactive) in the test on K562; > 10 µM (inactive) in the test on M14; 6.34 µM (inactive) with MCF7; 6.62 µM (inactive) with Malme-3M; > 10 µM (inactive) in the test on NCI-H226. The GI50 is 4.51 µM (inactive) in the test with NCI-H23; 5.37 µM (inactive) with NCI-H460; 2.73 µM (inactive) in the test with NCI-H522; > 10 µM (inactive) in the test on NCI/ADR-RES; 5.86 µM (inactive) in the test on SK-MEL-2; 3.83 µM (inactive) in the test with UACC-257. Moreover, in the test with UO-31, the GI50 is 50.6 µM (inactive).
Take `C=C1C(C(=O)O)C1C(=O)O` (stereo not drawn): the GI50 in the test on A549, in the test on CAKI-1, with DMS-114, in the test on HT-29, in the test on IGROV-1 and with K562 was > 100 µM (inactive) each time. The GI50 with M14 is > 100 µM (inactive); with Malme-3M, > 100 µM (inactive); in the test with NCI-H226, 21.1 µM (inactive); with NCI-H23, > 100 µM (inactive); with NCI-H460, > 100 µM (inactive); in the test with NCI-H522 it was > 100 µM (inactive). For the same compound, the GI50 with SK-MEL-2, in the test with UACC-257 and in the test on UO-31 was > 100 µM (inactive) each time.
